# Data as given in patent publication US4174406A, “Terpenylaminoalkanol fish toxicants” (priority 1977, dated 1979).
# Experiments:
# Coho salmon = assay: Laboratory fish toxicity test (Table 1); type: in vivo, Oncorhynchus kisutch; conditions: tech, 12 C, soft water
# Method: (§1) Fish were obtained from state and federal hatcheries and maintained prior to testing by a trained fish culturist. Fish of total length 2-5 cm were used in laboratory tests while for outdoor tests small fish (4-6 cm in length) and larger carp and buffalo (Ictiobus cyprinellus) were used.
# (§2) In all tests 10 fish of each were exposed to selective concentrations of the toxicant. Mortalities were observed and recorded at 1,2 and 6 hours on the first day and once daily thereafter, during 96 hour exposure.
# (§3) Laboratory tests were also conducted in soft water 12° C. wherein the toxicant was evaluated against fifteen species of fish including both cold and warm water varieties. In Table 1, the LC 50 toxicity values for N-(2-hydroxyethyl) digeranylamine is shown for various species. LC50 is defined as the amount (mg/liter) of toxicant required to kill 50 percent of the particular fish species at 95% confidence interval.
# Chinook salmon = assay: Laboratory fish toxicity test (Table 1); type: in vivo, Oncorhynchus tschawytscha; conditions: tech, 12 C, soft water
# Method: as §1, §2, §3
# Largemouth bass = assay: Outdoor plastic pool test (Table 3); type: in vivo, Micropterus salmoides; conditions: for % kill: 96 hour, 50% formulation (hydrochloride salt)
# Method: (§4) N-(2-hydroxyethyl) digeranylamine was tested as a selective fish toxicant in outdoor pools stocked with various fish species and lined with black plastic using 50% water soluble formulations (hydrochloride salt). The formulation was added to each of four pools of 4,000-liter capacity at concentrations of 0.10, 0.15, 0.20, and 0.30 mg/liter. Another pool containing the same number, size, and species of fish served as a control. The test water had algal blooms, a pH of about 8.5, and a total hardness of about 200 mg/liter as CaCo3. The temperature was cool enough (15°-16°C.) to permit the use of trout.
# as §1, §2
# (§5) Outdoor pool tests were conducted using 50% formulation of the toxicant N-(2-hydroxyethyl) digeranylamine as indicated in Example 8. […] If selective control of white sucker and common carp is desired in an environment which includes rainbow trout, one should employ an effective concentration of toxicant which is at least as great as 0.05 mg/liter but less than 0.1 mg/liter. As a practical fishery practice in the northern United States and Canada, rainbow trout are not usually stocked in bodies of water containing the common carp species; the habitat conditions including water temperature and available oxygen of these species are usually quite different. Common carp and rainbow trout have quite different oxygen and temperature requirements and these differences generally preclude both species cohabitating under natural conditions. In this case the useful range to control common carp and white sucker can be much broader, i.e. 0.1 to 0.3 mg/liter.
# White sucker = assay: Outdoor plastic pool test (Table 3); type: in vivo, Catostomus commersoni; conditions: for % kill: 96 hour, 50% formulation (hydrochloride salt); for survival (in words): white suckers
# Method: as §4, §1, §2, §5
# Goldfish = assay: Outdoor plastic pool test (Table 3); type: in vivo, Carassius auratus; conditions: for % kill: 96 hour, 50% formulation (hydrochloride salt)
# Method: as §4, §1, §2, §5
# Banded killifish = assay: Laboratory fish toxicity test (Table 1); type: in vivo, Fundulus diaphanus; conditions: tech, 12 C, soft water
# Method: as §1, §2, §3
# Yellow perch = assay: Outdoor plastic pool test (Table 3); type: in vivo, Perca flavescens; conditions: for % kill: 96 hour, 50% formulation (hydrochloride salt)
# Method: as §4, §1, §2, §5
# Green sunfish [1] = assay: Influence of pH on toxicity to green sunfish in soft water (Table 4); type: in vivo, Lepomis cyanellus; conditions: tech, 12 C
# Method: To determine the influence of pH of the water used on the toxicity of the terpenylaminoalkanols evaluated, experiments were conducted with green sunfish (Lepomis cyanellus) using soft water at 12° C. and chemically buffered over the range of pH 6 to pH 9.
# Largermouth bass = assay: Laboratory fish toxicity test (Table 1); type: in vivo, Micropterus salmoides; conditions: tech, 12 C, soft water
# Method: as §1, §2, §3
# Largemouth buffalo = assay: Outdoor plastic pool test (Table 3); type: in vivo, Ictibous cyprinellus; conditions: 96 hour, 50% formulation (hydrochloride salt)
# Method: as §4, §1, §2, §5
# Backswimmer = assay: Static bioassay in invertebrates (Table 2); type: in vivo, Notonecta sp.; conditions: tech, 17 C, soft reconstituted water 42 mg/l hardness
# Method: The effect of the various toxicants on common invertebrate species was determined in a static test conducted 17° C. The invertebrates tested were collected from natural populations or purchased from commercial suppliers. They were held in soft water in fiberglass tanks in the laboratory or in outdoor plastic swimming pools. Mortality was observed during holding, and only healthy organisms were used for the toxicity tests. At least 10 organisms of nine species were exposed to each concentration in static tests.
# Fathead minnow = assay: Laboratory fish toxicity test (Table 1); type: in vivo, Pimephales promelas; conditions: tech, 12 C, soft water
# Method: as §1, §2, §3
# Green sunfish [2] = assay: Outdoor plastic pool test (Table 3); type: in vivo, Lepomis cyanellus; conditions: for % kill: 96 hour, 50% formulation (hydrochloride salt)
# Method: as §4, §1, §2, §5
# Brown trout = assay: Laboratory fish toxicity test (Table 1); type: in vivo, Salmo trutta; conditions: tech, 12 C, soft water
# Method: as §1, §2, §3
# Channel catfish = assay: Outdoor plastic pool test (Table 3); type: in vivo, Ictalurus punctatus; conditions: for % kill: 96 hour, 50% formulation (hydrochloride salt)
# Method: as §4, §1, §2, §5
smiles,measurement,setting,value
CC(C)=CCC/C(C)=C/CN(C/C=C(\C)CCC=C(C)C)CCO [N-(2-hydroxyethyl) digeranylamine],LC50,Coho salmon; 3 hours,0.320 µg/mL
same,LC50,Coho salmon; 6 hours,0.240 µg/mL
same,LC50,Coho salmon; 24 hours,0.200 µg/mL
same,LC50,Coho salmon; 96 hours,0.142 µg/mL
same,LC50,Chinook salmon; 3 hours,0.300 µg/mL
same,LC50,Chinook salmon; 6 hours,0.210 µg/mL
same,LC50,Chinook salmon; 24 hours,0.167 µg/mL
same,LC50,Chinook salmon; 96 hours,0.129 µg/mL
same,% kill,Largemouth bass; 0.10 mg/l,0%
same,% kill,Largemouth bass; 0.15 mg/l,0%
same,% kill,Largemouth bass; 0.20 mg/l,0%
same,% kill,Largemouth bass; 0.30 mg/l,0%
same,survival (in words),"Largemouth bass; largemouth bass, 0.3 mg/liter, 50% formulation",complete survival
same,% kill,White sucker; 0.10 mg/l,20%
same,% kill,White sucker; 0.15 mg/l,70%
same,% kill,White sucker; 0.20 mg/l,100%
same,% kill,White sucker; 0.30 mg/l,100%
same,survival (in words),White sucker; 0.2 mg/liter or higher,none survived
same,survival (in words),White sucker; 0.10 and 0.15 mg/liter,Some white suckers and larger carp (19 cm) survived
same,% kill,Goldfish; 0.10 mg/l,0%
same,% kill,Goldfish; 0.15 mg/l,0%
same,% kill,Goldfish; 0.20 mg/l,0%
same,% kill,Goldfish; 0.30 mg/l,0%
same,survival (in words),"Goldfish; goldfish, 0.3 mg/liter, 50% formulation",complete survival
same,LC50,Banded killifish; 3 hours,7.20 µg/mL
same,LC50,Banded killifish; 6 hours,2.77 µg/mL
same,LC50,Banded killifish; 24 hours,1.32 µg/mL
same,LC50,Banded killifish; 96 hours,0.792 µg/mL
same,% kill,Yellow perch; 0.10 mg/l,0%
same,% kill,Yellow perch; 0.15 mg/l,30%
same,% kill,Yellow perch; 0.20 mg/l,0%
same,% kill,Yellow perch; 0.30 mg/l,50%
same,survival (in words),"Yellow perch; yellow perch, 0.30 mg/liter and lower, 50% formulation","died at 0.30 mg/liter of toxicant, but all survived lower concentrations"
same,LC50,"Green sunfish [1]; pH 6.0, 3 hours",6.34 µg/mL
same,LC50,"Green sunfish [1]; pH 6.0, 6 hours",5.00 µg/mL
same,LC50,"Green sunfish [1]; pH 6.0, 24 hours",2.84 µg/mL
same,LC50,"Green sunfish [1]; pH 6.0, 96 hours",1.85 µg/mL
same,LC50,"Green sunfish [1]; pH 7.5, 3 hours",2.47 µg/mL
same,LC50,"Green sunfish [1]; pH 7.5, 6 hours",1.64 µg/mL
same,LC50,"Green sunfish [1]; pH 7.5, 24 hours",1.00 µg/mL
same,LC50,"Green sunfish [1]; pH 7.5, 96 hours",0.829 µg/mL
same,LC50,"Green sunfish [1]; pH 8.0, 24 hours",0.520 µg/mL
same,LC50,"Green sunfish [1]; pH 8.0, 96 hours",0.520 µg/mL
same,LC50,"Green sunfish [1]; pH 9.0, 3 hours",0.870 µg/mL
same,LC50,"Green sunfish [1]; pH 9.0, 24 hours",0.360 µg/mL
same,LC50,"Green sunfish [1]; pH 9.0, 96 hours",0.268 µg/mL
same,LC50,Largermouth bass; 3 hours,1.40 µg/mL
same,LC50,Largermouth bass; 6 hours,0.530 µg/mL
same,LC50,Largermouth bass; 24 hours,0.380 µg/mL
same,LC50,Largermouth bass; 96 hours,0.360 µg/mL
same,% kill,Largemouth buffalo; 0.10 mg/l,0%
same,% kill,Largemouth buffalo; 0.15 mg/l,20%
same,% kill,Largemouth buffalo; 0.20 mg/l,20%
same,% kill,Largemouth buffalo; 0.30 mg/l,100%
same,LC50,Backswimmer; 1 hour,9.15 µg/mL
same,LC50,Backswimmer; 3 hour,8.35 µg/mL
same,LC50,Backswimmer; 6 hours,8.30 µg/mL
same,LC50,Backswimmer; 28 hours,4.90 µg/mL
same,LC50,Backswimmer; 96 hours,3.45 µg/mL
same,LC50,Fathead minnow; 6 hours,1.55 µg/mL
same,LC50,Fathead minnow; 24 hours,0.560 µg/mL
same,LC50,Fathead minnow; 96 hours,0.303 µg/mL
same,% kill,Green sunfish [2]; 0.10 mg/l,0%
same,% kill,Green sunfish [2]; 0.15 mg/l,0%
same,% kill,Green sunfish [2]; 0.20 mg/l,0%
same,% kill,Green sunfish [2]; 0.30 mg/l,0%
same,survival (in words),"Green sunfish [2]; green sunfish, 0.3 mg/liter, 50% formulation",complete survival
same,LC50,Brown trout; 3 hours,0.0955 µg/mL
same,LC50,Brown trout; 6 hours,0.0742 µg/mL
same,LC50,Brown trout; 24 hours,0.0700 µg/mL
same,LC50,Brown trout; 96 hours,0.0647 µg/mL
same,% kill,Channel catfish; 0.10 mg/l,0%
same,% kill,Channel catfish; 0.15 mg/l,0%
same,% kill,Channel catfish; 0.20 mg/l,0%
same,% kill,Channel catfish; 0.30 mg/l,40%
same,survival (in words),"Channel catfish; channel catfish, 0.30 mg/liter and lower, 50% formulation","died at 0.30 mg/liter of toxicant, but all survived lower concentrations"
